# Measured values published in PubChem BioAssay (NCI).
#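 Cells were grown in 96-well plates and exposed to each compound for 48 hours at five concentrations; endpoints were interpolated linearly between bracketing concentrations, or set to the highest concentration if not reached. TGI marks complete inhibition of growth.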
# Assays:
# Test in all cases: DTP human tumour cell line panel, 48 h
# A549 NSCLC = tested on: A549 NSCLC
# TK-10 renal = tested on: TK-10 renal
# NCI-H522 lung = tested on: NCI-H522 lung
# HL-60(TB) leukemia = tested on: HL-60(TB) leukemia
# SN12C renal = tested on: SN12C renal
# HOP-62 NSCLC = tested on: HOP-62 NSCLC
# SR leukemia = tested on: SR leukemia
# SK-OV-3 ovarian = tested on: SK-OV-3 ovarian
# KM12 colon = tested on: KM12 colon
# SF-539 CNS = tested on: SF-539 CNS
# A498 renal = tested on: A498 renal
# LOX IMVI melanoma = tested on: LOX IMVI melanoma
# M14 melanoma = tested on: M14 melanoma
# OVCAR-8 ovarian = tested on: OVCAR-8 ovarian
# NCI-H460 lung = tested on: NCI-H460 lung
# U251 CNS = tested on: U251 CNS
# SW-620 colon = tested on: SW-620 colon
# HCT-15 colon = tested on: HCT-15 colon
# NCI/ADR-RES ovarian = tested on: NCI/ADR-RES ovarian
# HCT-116 colon = tested on: HCT-116 colon
# SF-295 CNS = tested on: SF-295 CNS
# SF-268 CNS = tested on: SF-268 CNS
# UO-31 renal = tested on: UO-31 renal
# BT-549 breast = tested on: BT-549 breast
# HS 578T breast = tested on: HS 578T breast
# SK-MEL-5 melanoma = tested on: SK-MEL-5 melanoma
# OVCAR-4 ovarian = tested on: OVCAR-4 ovarian
# SK-MEL-28 melanoma = tested on: SK-MEL-28 melanoma
# CAKI-1 renal = tested on: CAKI-1 renal
# ACHN renal = tested on: ACHN renal
# OVCAR-5 ovarian = tested on: OVCAR-5 ovarian
# HT29 colon = tested on: HT29 colon
# UACC-62 melanoma = tested on: UACC-62 melanoma
# CCRF-CEM leukemia = tested on: CCRF-CEM leukemia
# IGROV1 ovarian = tested on: IGROV1 ovarian
# SK-MEL-2 melanoma = tested on: SK-MEL-2 melanoma
# T-47D breast = tested on: T-47D breast
# K-562 leukemia = tested on: K-562 leukemia
# DU-145 prostate = tested on: DU-145 prostate
# NCI-H23 lung = tested on: NCI-H23 lung
# HCC-2998 colon = tested on: HCC-2998 colon
# MALME-3M melanoma = tested on: MALME-3M melanoma
# PC-3 prostate = tested on: PC-3 prostate
# 786-0 renal = tested on: 786-0 renal
# COLO 205 colon = tested on: COLO 205 colon
# NCI-H226 lung = tested on: NCI-H226 lung
# MDA-N = tested on: MDA-N
# MCF7 breast = tested on: MCF7 breast
# OVCAR-3 ovarian = tested on: OVCAR-3 ovarian
# EKVX NSCLC = tested on: EKVX NSCLC
# MDA-MB-435 = tested on: MDA-MB-435
# HOP-92 NSCLC = tested on: HOP-92 NSCLC
# SNB-75 CNS = tested on: SNB-75 CNS
# RXF 393 renal = tested on: RXF 393 renal
# UACC-257 melanoma = tested on: UACC-257 melanoma
# SNB-19 CNS = tested on: SNB-19 CNS
# MDA-MB-231 breast = tested on: MDA-MB-231 breast
# RPMI-8226 leukemia = tested on: RPMI-8226 leukemia
smiles,measurement,setting,value
N#C/C(=C/N1C(=O)/C(=C/c2ccc([N+](=O)[O-])cc2)SC1=S)c1nc2ccccc2s1,TGI,A549 NSCLC,> 100 µM
same,TGI,TK-10 renal,66.9 µM
same,TGI,NCI-H522 lung,53.8 µM
same,TGI,HL-60(TB) leukemia,> 100 µM
same,TGI,SN12C renal,81 µM
same,TGI,HOP-62 NSCLC,7.32 µM
same,TGI,SR leukemia,> 100 µM
same,TGI,SK-OV-3 ovarian,43.6 µM
same,TGI,KM12 colon,> 100 µM
same,TGI,SF-539 CNS,> 100 µM
same,TGI,A498 renal,33.2 µM
same,TGI,LOX IMVI melanoma,> 100 µM
same,TGI,M14 melanoma,98.5 µM
same,TGI,OVCAR-8 ovarian,> 100 µM
same,TGI,NCI-H460 lung,43.8 µM
same,TGI,U251 CNS,41.7 µM
same,TGI,SW-620 colon,> 100 µM
same,TGI,HCT-15 colon,> 100 µM
same,TGI,NCI/ADR-RES ovarian,> 100 µM
same,TGI,HCT-116 colon,32.7 µM
same,TGI,SF-295 CNS,33.9 µM
same,TGI,SF-268 CNS,> 100 µM
same,TGI,UO-31 renal,63.3 µM
same,TGI,BT-549 breast,73.7 µM
same,TGI,HS 578T breast,> 100 µM
same,TGI,SK-MEL-5 melanoma,26.9 µM
same,TGI,OVCAR-4 ovarian,> 100 µM
same,TGI,SK-MEL-28 melanoma,> 100 µM
same,TGI,CAKI-1 renal,> 100 µM
same,TGI,ACHN renal,55.3 µM
same,TGI,OVCAR-5 ovarian,80.8 µM
same,TGI,HT29 colon,> 100 µM
same,TGI,UACC-62 melanoma,24 µM
same,TGI,CCRF-CEM leukemia,> 100 µM
same,TGI,IGROV1 ovarian,> 100 µM
same,TGI,SK-MEL-2 melanoma,36 µM
same,TGI,T-47D breast,69.5 µM
same,TGI,K-562 leukemia,> 100 µM
same,TGI,DU-145 prostate,> 100 µM
same,TGI,NCI-H23 lung,89.1 µM
same,TGI,HCC-2998 colon,29.9 µM
same,TGI,MALME-3M melanoma,73.3 µM
same,TGI,PC-3 prostate,40.4 µM
same,TGI,786-0 renal,> 100 µM
same,TGI,COLO 205 colon,30 µM
same,TGI,NCI-H226 lung,78.4 µM
same,TGI,MDA-N,> 100 µM
same,TGI,MCF7 breast,83.2 µM
same,TGI,OVCAR-3 ovarian,15.9 µM
same,TGI,EKVX NSCLC,61.4 µM
same,TGI,MDA-MB-435,> 100 µM
same,TGI,HOP-92 NSCLC,63.3 µM
same,TGI,SNB-75 CNS,69.2 µM
same,TGI,RXF 393 renal,52.6 µM
same,TGI,UACC-257 melanoma,40.5 µM
same,TGI,SNB-19 CNS,> 100 µM
same,TGI,MDA-MB-231 breast,37 µM
same,TGI,RPMI-8226 leukemia,68.7 µM
